In PMC7830900, “Cinnamoyl Sucrose Esters as Alpha Glucosidase Inhibitors for the Treatment of Diabetes” (Molecules, 2021):

Columns and labels:
[1] = target: yeast α-glucosidase (Saccharomyces cerevisiae, UniProt P53341); experiment: In vitro α-glucosidase inhibition assay (PNPG substrate); type: biochemical; design: inhibition: dose or concentration left out as unconfirmed; settings: for IC50: dose-response 0–25 µg/mL
Protocol: α-Glucosidase inhibition was tested according to previously reported methods with some modifications. […] Fifty microliters of yeast α-glucosidase enzyme solution (0.5 U/mL in phosphate buffer) was added to the wells. The plate was incubated at 37 °C for 15 min. Next, 25 µL of 2.5 mM PNPG (4-nitrophenyl α-D-glucopyranoside) substrate solution (in phosphate buffer) was added. The microplate was incubated at 37 °C for another 15 min. The absorbance was then measured using a microplate reader at 405 nm. The percentage inhibition was calculated using the formula: % inhibition = ΔAbscontrol−ΔAbssample/ΔAbscontrol × 100
All measurements were performed in triplicates and the values. The IC50 values for selected CSEs were calculated by plotting a dose-response curve for a range of concentrations of the CSEs (0–25 µg/mL) for the selected CSEs (data not shown) and regression analysis was done using Graphpad Prism software using the in-built function.

[2] = target: T1, porcine pancreatic α-amylase (Sus scrofa, UniProt P00690); experiment: In vitro α-amylase inhibition assay (starch/DNSA); type: biochemical; design: inhibition: dose or concentration left out as unconfirmed; settings: for IC50: dose-response 0–25 µg/mL
T1 sequence (P00690 16-511): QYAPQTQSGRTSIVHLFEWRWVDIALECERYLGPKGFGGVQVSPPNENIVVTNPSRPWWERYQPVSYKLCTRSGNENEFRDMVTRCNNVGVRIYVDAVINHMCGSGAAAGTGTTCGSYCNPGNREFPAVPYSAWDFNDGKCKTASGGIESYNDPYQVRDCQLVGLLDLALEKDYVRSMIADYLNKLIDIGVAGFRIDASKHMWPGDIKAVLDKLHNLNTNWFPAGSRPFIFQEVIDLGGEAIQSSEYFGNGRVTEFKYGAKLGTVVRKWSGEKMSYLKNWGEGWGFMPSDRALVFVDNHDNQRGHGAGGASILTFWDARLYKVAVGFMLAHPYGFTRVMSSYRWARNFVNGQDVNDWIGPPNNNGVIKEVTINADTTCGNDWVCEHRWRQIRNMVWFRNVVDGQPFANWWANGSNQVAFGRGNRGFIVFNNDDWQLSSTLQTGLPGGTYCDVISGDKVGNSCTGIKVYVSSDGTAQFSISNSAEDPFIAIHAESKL
Protocol: α-amylase inhibition was tested using previously reported methods […] The tubes were then incubated at 37 °C for 10 min. Next, 450 µL of 0.5% starch solution was added and the tubes were incubated for a further 20 min at 37 °C. Finally, 500 µL of Dinitro Salicylic Acid (DNSA) reagent was added and the tubes were placed in a boiling water bath for 15 min. The absorbance of the tubes was recorded at 540 nm and the % inhibition calculated using the same formula as for α-glucosidase, % inhibition = ΔAbscontrol−ΔAbssample/ΔAbscontrol × 100
All measurements were performed in triplicates and the values.

[3] = test system: STZ-treated mice; design: method as in earlier work; settings: STZ-treated mice compared to control (starch only) mice; cited from earlier work
[4] = 25 μg/mL, mean ± SD, n = 3, less than 5% inhibition = No Significant Activity

yeast α-glucosidase, sequence (P53341 whole entry): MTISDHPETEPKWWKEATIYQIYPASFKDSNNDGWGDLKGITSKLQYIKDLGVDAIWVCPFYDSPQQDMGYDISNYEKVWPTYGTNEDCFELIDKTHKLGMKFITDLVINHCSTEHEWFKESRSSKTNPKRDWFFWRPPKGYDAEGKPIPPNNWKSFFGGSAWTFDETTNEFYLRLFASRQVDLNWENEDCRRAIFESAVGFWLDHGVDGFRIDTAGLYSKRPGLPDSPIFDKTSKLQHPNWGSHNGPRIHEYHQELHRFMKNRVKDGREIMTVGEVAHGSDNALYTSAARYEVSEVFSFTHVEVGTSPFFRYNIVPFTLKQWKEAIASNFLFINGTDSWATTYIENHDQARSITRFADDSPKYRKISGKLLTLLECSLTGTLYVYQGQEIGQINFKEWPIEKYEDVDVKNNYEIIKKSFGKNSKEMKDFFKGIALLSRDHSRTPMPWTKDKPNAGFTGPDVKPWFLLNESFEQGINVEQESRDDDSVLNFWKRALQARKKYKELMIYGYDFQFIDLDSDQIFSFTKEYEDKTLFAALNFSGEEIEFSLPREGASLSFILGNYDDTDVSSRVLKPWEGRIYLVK

SMILES	inhibition [1]	inhibition [2]	further results
O=C(/C=C/c1ccccc1)OC[C@H]1O[C@@](CO)(O[C@H]2O[C@H](CO)[C@@H](O)[C@H](O)[C@H]2O)[C@@H](OC(=O)/C=C/c2ccccc2)[C@@H]1OC(=O)/C=C/c1ccccc1 [CSE 8]	34 ± 4%	16 ± 2%	% α-glucosidase inhibition relative to % α-amylase inhibition ([1]; 25 μg/mL, selectivity α-glucosidase over α-amylase): higher inhibition of α-glucosidase than α-amylase
CC1(C)OC[C@@]2(O[C@H]3O[C@@H]4COC(C)(C)O[C@H]4[C@H](O)[C@H]3O1)O[C@H](COC(=O)/C=C/c1ccccc1)[C@@H](O)[C@@H]2OC(=O)/C=C/c1ccccc1 [CSE 3]	35 ± 5%	9 ± 5%	–
O=C(C=Cc1ccccc1)OCC1OC(CO)(OC2OC(CO)C(O)C(OC(=O)C=Cc3ccccc3)C2O)C(OC(=O)C=Cc2ccccc2)C1OC(=O)C=Cc1ccccc1 (stereo not shown) [CSE 9]	74 ± 9%	99 ± 1%	α-glucosidase IC50, fold lower than acarbose [1]: over 36 fold; IC50 ([1]; mean ± SD, n = 3): 9 ± 3 µM; α-amylase IC50, fold less than acarbose [2]: five-fold less; IC50 ([2]; mean ± SD, n = 3): 0.8 ± 0.1 µM
C[C@H]1O[C@H](O[C@H]2[C@H](O)[C@@H](O)[C@@H](O[C@H]3[C@H](O)[C@@H](O)C(O)O[C@@H]3CO)O[C@@H]2CO)[C@H](O)[C@@H](O)[C@@H]1N[C@H]1C=C(CO)[C@@H](O)[C@H](O)[C@H]1O (stereo partly shown) [acarbose, reference compound]	27 ± 4%	–	inhibition at 25 µg/mL ([2]; read-out: % α-amylase inhibition): 93 ± 2%
CC(=O)O[C@@H]1[C@H]2OC(C)(C)OC[C@@]3(O[C@H]2O[C@@H]2COC(C)(C)O[C@@H]12)O[C@H](COC(=O)/C=C/c1ccccc1)[C@@H](OC(=O)/C=C/c1ccccc1)[C@@H]3OC(=O)/C=C/c1ccccc1 [CSE 7]	46 ± 2%	13 ± 7%	–
CC1(C)OC[C@@]2(O[C@H]3O[C@@H]4COC(C)(C)O[C@H]4[C@H](O)[C@H]3O1)O[C@H](COC(=O)/C=C/c1ccccc1)[C@@H](OC(=O)/C=C/c1ccccc1)[C@@H]2OC(=O)/C=C/c1ccccc1 [CSE 4]	32 ± 3%	8 ± 4%	–
CC1(C)OC[C@@]2(O[C@H]3O[C@@H]4COC(C)(C)O[C@H]4[C@H](O)[C@H]3O1)O[C@H](COC(=O)/C=C/c1ccccc1)[C@@H](O)[C@@H]2O [CSE 2]	–	–	% α-glucosidase inhibition [1, 4]: did not show significant inhibition activity; % α-amylase inhibition [2, 4]: did not show significant inhibition activity
CC1(C)OCC2OC3OC4(COC(C)(C)OC3C(OC(=O)C=Cc3ccccc3)C2O1)OC(COC(=O)C=Cc1ccccc1)C(OC(=O)C=Cc1ccccc1)C4OC(=O)C=Cc1ccccc1 (stereo not shown) [CSE 5]	77 ± 5%	98 ± 2%	α-glucosidase IC50, fold lower than acarbose [1]: over 36 fold; IC50 ([1]; mean ± SD, n = 3): 9 ± 3 µM; α-amylase IC50, fold less than acarbose [2]: five-fold less; IC50 ([2]; mean ± SD, n = 3): 1 ± 0.2 µM
CC(=O)O[C@@H]1[C@H]2OC(C)(C)OC[C@@]3(O[C@H]2O[C@@H]2COC(C)(C)O[C@@H]12)O[C@H](COC(=O)/C=C/c1ccccc1)[C@@H](OC(C)=O)[C@@H]3OC(=O)/C=C/c1ccccc1 [CSE 6]	46 ± 3%	14 ± 4%	–
COc1cc(/C=C/C(=O)OC[C@H]2O[C@@](CO)(O[C@H]3O[C@H](CO)[C@@H](O)[C@H](OC(=O)/C=C/c4ccc(O)c(OC)c4)[C@H]3O)[C@@H](OC(=O)/C=C/c3ccc(O)c(OC)c3)[C@@H]2OC(=O)/C=C/c2ccc(O)c(OC)c2)ccc1O [FSE 1]	–	–	blood glucose excursion [3]: significantly reduced blood glucose excursion
